According to ChEMBL document CHEMBL3992518, “Peptide Macrocycle Inhibitor of Coagulation Factor XII with Subnanomolar Affinity and High Target Selectivity” (J Med Chem, 2017):
pKi: −log10 of the molar value. *1 amine or outer side, *2 acyl side, *3 side chain or, on linkers, in order; H or OH if unused. Where a SMILES comes first, the peptide text is derived from it. Bridges are numbered along the chain shown (N, C = ends). [ ]: non-standard residue; d: D form. TATA = O=C(CC[*:1])N1CN(C(=O)CC[*:2])CN(C(=O)CC[*:3])C1; hArg = N=C(N)NCCCC[C@H](N)C(=O)O

molecular target: T1, Coagulation factor XII (Homo sapiens, UniProt P00748); test: Inhibition of human beta factor 12a using fluorogenic substrate Boc-Gln-Gly-Arg-AMC preincubated for 10 mins followed by addition of substrate measured every min for 30 mins
T1 sequence (P00748 whole entry): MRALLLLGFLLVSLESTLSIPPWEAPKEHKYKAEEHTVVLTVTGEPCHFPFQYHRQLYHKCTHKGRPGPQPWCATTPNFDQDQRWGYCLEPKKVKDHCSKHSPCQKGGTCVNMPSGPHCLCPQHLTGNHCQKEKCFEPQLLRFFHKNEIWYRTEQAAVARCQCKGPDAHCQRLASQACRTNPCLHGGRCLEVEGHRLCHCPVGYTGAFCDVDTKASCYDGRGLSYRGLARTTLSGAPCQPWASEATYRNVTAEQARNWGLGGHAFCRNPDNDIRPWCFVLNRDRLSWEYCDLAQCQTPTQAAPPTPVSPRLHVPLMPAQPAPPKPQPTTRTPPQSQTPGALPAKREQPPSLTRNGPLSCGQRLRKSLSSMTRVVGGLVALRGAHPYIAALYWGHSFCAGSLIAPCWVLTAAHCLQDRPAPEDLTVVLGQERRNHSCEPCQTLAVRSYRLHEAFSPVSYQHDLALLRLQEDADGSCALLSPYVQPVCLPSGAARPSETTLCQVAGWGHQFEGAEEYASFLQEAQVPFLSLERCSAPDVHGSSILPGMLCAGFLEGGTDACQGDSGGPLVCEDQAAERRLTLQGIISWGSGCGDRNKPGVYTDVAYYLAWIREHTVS

Row | Compound | pKi
1 | CC(C)C[C@@H]1NC(=O)[C@H](CCC(N)=O)NC(=O)[C@H](CCCNC(=N)N)NC(=O)[C@@H]2CSCCC(=O)N3CN(CN(C3)C(=O)CCSC[C@H](NC(=O)[C@@H](N)CCCNC(=N)N)C(=O)N[C@@H](CCc3ccccc3)C(=O)N[C@@H](CCCNC(=N)N)C(=O)N[C@@H](CC(C)C)C(=O)N3CCC[C@H]3C(=O)N2)C(=O)CCSC[C@@H](C(=O)N[C@@H](CCCNC(=N)N)C(=O)N[C@@H](Cc2c[nH]c3ccccc23)C(=O)O)NC(=O)[C@H](CCCNC(=N)N)NC1=O | 6.44
2 | CC[C@H](C)[C@H](N)C(=O)N[C@H]1CSCCC(=O)N2CN3CN(C2)C(=O)CCSC[C@H](NC(=O)[C@@H]2CCCN2C(=O)[C@H](CC(C)C)NC(=O)[C@H](CCCNC(=N)N)NC(=O)[C@H](Cc2ccccc2)NC1=O)C(=O)N[C@@H](CCCNC(=N)N)C(=O)N[C@@H](CCC(N)=O)C(=O)N[C@@H](CC(C)C)C(=O)N[C@@H](CCCNC(=N)N)C(=O)N[C@H](C(=O)N[C@@H](CCCNC(=N)N)C(=O)O)CSCCC3=O (H-ICFRLPCRQLRCR-OH; linker 2-7-12 via TATA) | 7.08
3 | CC(C)C[C@@H]1NC(=O)[C@H](CCC(N)=O)NC(=O)[C@H](CCCNC(=N)N)NC(=O)[C@@H]2CSCCC(=O)N3CN(CN(C3)C(=O)CCSC[C@H](NC(=O)[C@@H](N)CCCNC(=N)N)C(=O)N[C@@H](Cc3ccccc3)C(=O)N[C@@H](CCCNC(=N)N)C(=O)N[C@@H](CC(C)C)C(=O)N[C@@H](CO)C(=O)N2)C(=O)CCSC[C@@H](C(=O)N[C@@H](CCCNC(=N)N)C(=O)N[C@@H](Cc2c[nH]c3ccccc23)C(=O)O)NC(=O)[C@H](CCCNC(=N)N)NC1=O (H-RCFRLSCRQLRCRW-OH; linker 2-7-12 via TATA) | 7.53
4 | CC(C)C[C@@H]1NC(=O)[C@H](CCC(N)=O)NC(=O)[C@H](CCCNC(=N)N)NC(=O)[C@@H]2CSCCC(=O)N3CN(CN(C3)C(=O)CCSC[C@H](NC(=O)[C@@H](N)C(C)C)C(=O)N[C@@H](Cc3ccccc3)C(=O)N[C@@H](CCCNC(=N)N)C(=O)N[C@@H](CC(C)C)C(=O)N3CCC[C@H]3C(=O)N2)C(=O)CCSC[C@@H](C(=O)N[C@@H](CCCNC(=N)N)C(=O)O)NC(=O)[C@H](CCCNC(=N)N)NC1=O (H-VCFRLPCRQLRCR-OH; linker 2-7-12 via TATA) | 7.00
5 | CC(C)C[C@@H]1NC(=O)[C@H](CCC(N)=O)NC(=O)[C@H](CCCNC(=N)N)NC(=O)[C@@H]2CSCCC(=O)N3CN(CN(C3)C(=O)CCSC[C@H](NC(=O)[C@@H](N)CCCNC(=N)N)C(=O)N[C@@H](Cc3ccc(F)cc3)C(=O)N[C@@H](CCCNC(=N)N)C(=O)N[C@@H](CC(C)C)C(=O)N3CCC[C@H]3C(=O)N2)C(=O)CCSC[C@@H](C(=O)N[C@@H](CCCNC(=N)N)C(=O)N[C@@H](Cc2c[nH]c3ccccc23)C(=O)O)NC(=O)[C@H](CCCNC(=N)N)NC1=O | 9.05
6 | Cc1cccc(C[C@@H]2NC(=O)[C@@H](NC(=O)[C@@H](N)CCCNC(=N)N)CSCCC(=O)N3CN4CN(C3)C(=O)CCSC[C@H](NC(=O)[C@@H]3CCCN3C(=O)[C@H](CC(C)C)NC(=O)[C@H](CCCNC(=N)N)NC2=O)C(=O)N[C@@H](CCCNC(=N)N)C(=O)N[C@@H](CCC(N)=O)C(=O)N[C@@H](CC(C)C)C(=O)N[C@@H](CCCNC(=N)N)C(=O)N[C@H](C(=O)N[C@@H](CCCNC(=N)N)C(=O)N[C@@H](Cc2c[nH]c3ccccc23)C(=O)O)CSCCC4=O)c1 | 8.43
7 | CC(C)C[C@@H]1NC(=O)[C@H](CCC(N)=O)NC(=O)[C@H](CCCNC(=N)N)NC(=O)[C@@H]2CSCCC(=O)N3CN(CN(C3)C(=O)CCSC[C@H](NC(=O)[C@@H](N)CCCNC(=N)N)C(=O)N[C@@H](Cc3ccccc3)C(=O)N[C@@H](CCCNC(=N)N)C(=O)N[C@@H](CC(C)C)C(=O)N3CCC[C@H]3C(=O)N2)C(=O)CCSC[C@@H](C(=O)N[C@@H](CCCNC(=N)N)C(=O)N[C@@H](Cc2c[nH]c3ccccc23)C(=O)O)NC(=O)[C@H](CCCNC(=N)N)NC1=O (H-RCFRLPCRQLRCRW-OH; linker 2-7-12 via TATA) | 7.99
8 | CC(C)CC[C@@H]1NC(=O)[C@H](CCC(N)=O)NC(=O)[C@H](CCCNC(=N)N)NC(=O)[C@@H]2CSCCC(=O)N3CN(CN(C3)C(=O)CCSC[C@H](NC(=O)[C@@H](N)CCCNC(=N)N)C(=O)N[C@@H](Cc3ccccc3)C(=O)N[C@@H](CCCNC(=N)N)C(=O)N[C@@H](CC(C)C)C(=O)N3CCC[C@H]3C(=O)N2)C(=O)CCSC[C@@H](C(=O)N[C@@H](CCCNC(=N)N)C(=O)N[C@@H](Cc2c[nH]c3ccccc23)C(=O)O)NC(=O)[C@H](CCCNC(=N)N)NC1=O | 7.53

Results, then the compound that gave them:

Row | pKi | Compound
9 | 7.15 | CC(C)C[C@@H]1NC(=O)[C@H](CCC(N)=O)NC(=O)[C@H](CCCNC(=N)N)NC(=O)[C@@H]2CSCCC(=O)N3CN(CN(C3)C(=O)CCSC[C@H](NC(=O)[C@@H](N)CCCNC(=N)N)C(=O)N[C@@H](Cc3ccccc3)C(=O)N[C@@H](CCCCNC(=N)N)C(=O)N[C@@H](CC(C)C)C(=O)N3CCC[C@H]3C(=O)N2)C(=O)CCSC[C@@H](C(=O)N[C@@H](CCCNC(=N)N)C(=O)N[C@@H](Cc2c[nH]c3ccccc23)C(=O)O)NC(=O)[C@H](CCCNC(=N)N)NC1=O (H-RCF[hArg]LPCRQLRCRW-OH; linker 2-7-12 via TATA)
10 | 7.23 | CC(C)C[C@@H]1NC(=O)[C@H](CCC(N)=O)NC(=O)[C@H](CCCNC(=N)N)NC(=O)[C@@H]2CSCCC(=O)N3CN(CN(C3)C(=O)CCSC[C@@H](C(=O)N[C@@H](CCCNC(=N)N)C(=O)O)NC(=O)[C@H](CCCNC(=N)N)NC1=O)C(=O)CCSC[C@H](NC(=O)[C@H](C)N)C(=O)N[C@@H](Cc1ccccc1)C(=O)N[C@@H](CCCNC(=N)N)C(=O)N[C@@H](CC(C)C)C(=O)N1CCC[C@H]1C(=O)N2 (H-ACFRLPCRQLRCR-OH; linker 2-7-12 via TATA)
11 | 7.33 | CC(C)C[C@@H]1NC(=O)[C@H](CCC(N)=O)NC(=O)[C@H](CCCNC(=N)N)NC(=O)[C@@H]2CSCCC(=O)N3CN(CN(C3)C(=O)CCSC[C@H](NC(=O)[C@@H](N)CCCNC(=N)N)C(=O)N[C@@H](Cc3ccccc3)C(=O)N[C@@H](CCCNC(=N)N)C(=O)N[C@@H](CC(C)C)C(=O)N[C@@H](C(C)C)C(=O)N2)C(=O)CCSC[C@@H](C(=O)N[C@@H](CCCNC(=N)N)C(=O)N[C@@H](Cc2c[nH]c3ccccc23)C(=O)O)NC(=O)[C@H](CCCNC(=N)N)NC1=O (H-RCFRLVCRQLRCRW-OH; linker 2-7-12 via TATA)
12 | 8.05 | CC(C)C[C@@H]1NC(=O)[C@H](CCC(N)=O)NC(=O)[C@H](CCCNC(=N)N)NC(=O)[C@@H]2CSCCC(=O)N3CN(CN(C3)C(=O)CCSC[C@H](NC(=O)[C@@H](N)CCCCN)C(=O)N[C@@H](Cc3ccccc3)C(=O)N[C@@H](CCCNC(=N)N)C(=O)N[C@@H](CC(C)C)C(=O)N3CCC[C@H]3C(=O)N2)C(=O)CCSC[C@@H](C(=O)N[C@@H](CCCNC(=N)N)C(=O)O)NC(=O)[C@H](CCCNC(=N)N)NC1=O (H-KCFRLPCRQLRCR-OH; linker 2-7-12 via TATA)
13 | < 6.00 | CC(C)C[C@@H]1NC(=O)[C@H](CCC(N)=O)NC(=O)[C@H](CCCNC(=N)N)NC(=O)[C@@H]2CSCCC(=O)N3CN(CN(C3)C(=O)CCSC[C@H](NC(=O)[C@@H](N)CCCNC(=N)N)C(=O)N[C@@H](Cc3ccc(C(C)(C)C)cc3)C(=O)N[C@@H](CCCNC(=N)N)C(=O)N[C@@H](CC(C)C)C(=O)N3CCC[C@H]3C(=O)N2)C(=O)CCSC[C@@H](C(=O)N[C@@H](CCCNC(=N)N)C(=O)N[C@@H](Cc2c[nH]c3ccccc23)C(=O)O)NC(=O)[C@H](CCCNC(=N)N)NC1=O
14 | 6.00 | CC(C)C[C@@H]1NC(=O)[C@H](CC(N)=O)NC(=O)[C@H](CCCNC(=N)N)NC(=O)[C@@H]2CSCCC(=O)N3CN(CN(C3)C(=O)CCSC[C@H](NC(=O)[C@@H](N)CCCNC(=N)N)C(=O)N[C@@H](Cc3ccccc3)C(=O)N[C@@H](CCCNC(=N)N)C(=O)N[C@@H](CC(C)C)C(=O)N3CCC[C@H]3C(=O)N2)C(=O)CCSC[C@@H](C(=O)N[C@@H](CCCNC(=N)N)C(=O)N[C@@H](Cc2c[nH]c3ccccc23)C(=O)O)NC(=O)[C@H](CCCNC(=N)N)NC1=O (H-RCFRLPCRNLRCRW-OH; linker 2-7-12 via TATA)
15 | 7.43 | CC(C)C[C@@H]1NC(=O)[C@H](CCC(N)=O)NC(=O)[C@H](CCCNC(=N)N)NC(=O)[C@@H]2CSCCC(=O)N3CN(CN(C3)C(=O)CCSC[C@H](NC(=O)[C@@H](N)CCCNC(=N)N)C(=O)N3CCC[C@H]3C(=O)N[C@@H](CCCNC(=N)N)C(=O)N[C@@H](CC(C)C)C(=O)N3CCC[C@H]3C(=O)N2)C(=O)CCSC[C@@H](C(=O)N[C@@H](CCCNC(=N)N)C(=O)N[C@@H](Cc2c[nH]c3ccccc23)C(=O)O)NC(=O)[C@H](CCCNC(=N)N)NC1=O
16 | 7.57 | CC(C)C[C@@H]1NC(=O)[C@H](CCC(N)=O)NC(=O)[C@H](CCCNC(=N)N)NC(=O)[C@@H]2CSCCC(=O)N3CN(CN(C3)C(=O)CCSC[C@H](NC(=O)[C@@H](N)CCCNC(=N)N)C(=O)N[C@@H](Cc3ccccc3F)C(=O)N[C@@H](CCCNC(=N)N)C(=O)N[C@@H](CC(C)C)C(=O)N3CCC[C@H]3C(=O)N2)C(=O)CCSC[C@@H](C(=O)N[C@@H](CCCNC(=N)N)C(=O)N[C@@H](Cc2c[nH]c3ccccc23)C(=O)O)NC(=O)[C@H](CCCNC(=N)N)NC1=O
17 | 7.49 | CC(C)C[C@@H]1NC(=O)[C@H](CCC(N)=O)NC(=O)[C@H](CCCNC(=N)N)NC(=O)[C@@H]2CSCCC(=O)N3CN(CN(C3)C(=O)CCSC[C@H](NC(=O)[C@@H](N)CCCNC(=N)N)C(=O)N[C@@H](Cc3ccc(O)cc3)C(=O)N[C@@H](CCCNC(=N)N)C(=O)N[C@@H](CC(C)C)C(=O)N3CCC[C@H]3C(=O)N2)C(=O)CCSC[C@@H](C(=O)N[C@@H](CCCNC(=N)N)C(=O)N[C@@H](Cc2c[nH]c3ccccc23)C(=O)O)NC(=O)[C@H](CCCNC(=N)N)NC1=O (H-RCYRLPCRQLRCRW-OH; linker 2-7-12 via TATA)
